US20110207697A1, “XANTHOHUMOL COMPOSITIONS AND METHODS FOR TREATING SKIN DISEASES OR DISORDERS” (Betal, LLC, priority 2008, published 2011)
Converted amounts (≈) assume the structure as drawn.

Legend:
[1] = biological target: T1, neutrophil collagenase (MMP-8) (Homo sapiens, UniProt P22894); assay: Anticollagenase assay; type: biochemical; conditions: mean of three measurements
T1 construct: from tissue; host or cells: human neutrophils
Method: Human recombinant matrix metalloproteinase-MMP-1) pro-enzyme, expressed in mammalian cells, and human nutrophil MMP-8 pro-enzyme were activated with 4-aminophenylmercuric acetate for 60 min 37 1 C, respectively (Knight et al. 1992 FEBS Lett. 296: 263-266). Hop components and vehicle were preincubated with 5 nM MMP- and 6 nM MMP-8 active enzymes in a modified MOPS buffer, pH 7.2, for 60 minutes at 37 C. The reaction was initiated by addition of […] Mca-Pro-Leu-Gly-Leu-Dpa-Ala-Arg for another 120-minute incubation period. The determination of the amount of Mca-Pro-Leu-Gly formed was read spectrofluorimetrically at 340/400 nm. Tissue inhibitors of metalloproteinase TIMP-1 and TIMP-2 were used as positive controls (Olson et 1997 J. Biol. Chem. 272: 29975-29983).

[2] = FRAP ferric reducing antioxidative power; conditions: FIG. 2 radar chart
Method: [table] […] The SOAC scores are not included in this figure; ORAC values used are the sum of lipophilic and hydrophilic results. For each assay category, scaling was made logarithmic so that the plot on the chart resembles the associated rating. […] The larger the spatial area, the higher the overall antioxidative capacity. […] Both hydrophilic and lipophilic oxygen radical absorbance capacity (ORAC) assays were carried out at Brunswick Laboratory (Wareham, Mass.) based on the modified ORACfl method reported by Ou et al. (2001 J. Agric. Food Chem. 49: 4619-4626, 2002 J. Agr. Food Chem. 50: 3122-3128). Trolox, a water-soluble vitamin E analog, was used as the calibration standard. The data are expressed as mmole of Trolox equivalents per gram (mmol TE/g). The acceptable precision of the ORAC assay is a 15% relative standard deviation. […] Hydroxyl radical ORAC (HOR-AC) is expressed as mmole caffeic acid equivalent per gram (mmol CAE/g). […] The peroxyl nitrite ORAC (NORAC) result is expressed as mmol TE/g. Alpha-tocopherol (vitamin E) was used as the calibration standard, and the singlet oxygen absorbance capacity (SOAC) result is expressed as mmole a-tocopherol equivalent (mmol VtE) per gram (Aubry et al. 1989). […] Radical-scavenging activity was measured by the change in absorbance at 517 nm with the DPPH result expressed as mmol TE/g. […] The FRAP result is expressed as mmol TE/g (Ou et al. 2002b). […]

[3] = test system: S. aureus (ATCC 6538P); assay: Antimicrobial susceptibility, broth dilution (MIC/MBC); type: cell-based, Staphylococcus aureus
Method: The antibacterial effects of seven hops components against five different strains of bacteria involved in primary or secondary skin and soft tissue infections was evaluated, with broth dilution methods. […] Antimicrobial susceptibility testing was performed using a broth dilution method. Gentamicin or ampicillin was used as a control to verify the methodology. A stock solution (20 mg/ml) of the test substance (or vehicle control) was prepared in dimethyl sulfoxide. Serial dilution was done in microwell plates. Reinforced Clostridial Medium was used for P. acnes (ATCC 6919). Three hundreds […] of the test substance was added to the test tube containing P. acnes (10^5 CFU/ml) in 2.7 ml of cultures grown under anaerobic conditions. Mueller-Hinston Broth suitable for culturing S. epidermidis (ATCC 12228), K. rhizophila (formerly M. luteus) (ATCC 9341), and S. aureus (ATCC […]), and Brain Heart Infusion Broth suitable for culturing S. pyogenes (ATCC 14289) were used. A total of […] of the test substance was added to the test tube containing the other microorganisms (10^5CFU/ml) in 0.9 ml of cultures grown under controlled conditions. […] Samples from those tubes that scored positive was plated onto an agar plate and incubated under controlled conditions.

[4] = Hydrophilic oxygen radical absorbance capacity (ORAC-H); conditions: water-soluble antioxidant capacity; expressed as mmol TE/g; — = No activity detected
Text: Thus the ORAC method has become a widely used method for assessing antioxidant capacity in biological samples and foods. However, because of its inability to measure both hydrophilic and lipophilic antioxidants, the method has its limitations. An ORAC method for lipophilic antioxidants was further developed and validated using fluorescein as the fluorescent probe (Prior et al. 2003 J. Agric. Food Chem. 51: 3273-3279). […] In the present work, the ORAC value is expressed as the sum of values of both the water-soluble and fat-soluble parts. […] Both hydrophilic and lipophilic oxygen radical absorbance capacity (ORAC) assays were carried out at Brunswick Laboratory (Wareham, Mass.) based on the modified ORACfl method reported by Ou et al. (2001 J. Agric. Food Chem. 49: 4619-4626, 2002 J. Agr. Food Chem. 50: 3122-3128). Trolox, a water-soluble vitamin E analog, was used as the calibration standard. The data are expressed as mmole of Trolox equivalents per gram (mmol TE/g). […] Hydroxyl radical ORAC (HOR-AC) is expressed as mmole caffeic acid equivalent per gram (mmol CAE/g). […] The peroxyl nitrite ORAC (NORAC) result is expressed as mmol TE/g. […] Radical-scavenging activity was measured by the change in absorbance at 517 nm with the DPPH result expressed as mmol TE/g. […] The FRAP result is expressed as mmol TE/g (Ou et al. 2002b).

T1 sequence (P22894 101-467): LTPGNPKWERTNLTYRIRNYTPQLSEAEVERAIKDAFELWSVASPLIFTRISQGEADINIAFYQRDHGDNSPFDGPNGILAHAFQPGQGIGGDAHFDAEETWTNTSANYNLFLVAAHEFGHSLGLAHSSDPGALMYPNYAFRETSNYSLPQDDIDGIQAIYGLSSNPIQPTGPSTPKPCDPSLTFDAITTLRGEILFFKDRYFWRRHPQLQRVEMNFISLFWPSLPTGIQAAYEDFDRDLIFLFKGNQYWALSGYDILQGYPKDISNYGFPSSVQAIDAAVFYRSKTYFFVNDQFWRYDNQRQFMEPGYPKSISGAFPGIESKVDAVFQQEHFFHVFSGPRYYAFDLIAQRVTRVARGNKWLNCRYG

Inhibitory ratio (%) MMP-8 ([1]; 10 μg/mL): 31% | Inhibitory ratio (%) MMP-8 ([1]; 30 μg/mL): 70% | Inhibitory ratio (%) MMP-8 ([1]; 100 μg/mL): 99% | MIC ([3]; 1 day): 1 µg/mL (≈ 2.82 µM) | MIC ([3]; Staphylococcus aureus, ATCC6538P): 1000 µg/mL (≈ 2820 µM)
Compound: COc1cc(O)c(CC=C(C)C)c(O)c1C(=O)/C=C/c1ccc(O)cc1 [Xanthohumol (7), 3′-[3,3-dimethylallyl]-2′,4′,4-trihydroxy-6′-methoxychalcone]
quenching activity against ferric ion (FRAP), rank among hop components [2]: highest quenching activity | MBC [3]: [100] g/mL | ORAC-H (Trolox equivalent) [4]: 2.1 Trolox equivalent
